Results reported in ChEMBL document CHEMBL6078720, “Design and synthesis of novel 3,7-dihydro-1H-purine-2,6-diones as DPP-4 inhibitors: An in silico, in vitro and in vivo approach” (Eur J Med Chem, 2025).
Calls of active or inactive are those of the source. The calls are words filed in the database; no cut-off is given here.

Assays:
HepG2 [1] = test: Cytotoxicity against human HepG2 cells assessed as cell viability up to 100 uM incubated for 24 hrs by MTT assay; format: toxicity, cell-based; settings: hepg2, 24 h
Mus musculus [2] = test: Anti-diabetic activity against STZ-NA induced diabetic Swiss Albino mouse model assessed as decrease in blood glucose level at 5 mg/kg, po measured up to 240 mins by Oral glucose tolerance test relative to control; format: functional, organism-based
Mus musculus [3] = test: Anti-diabetic activity against STZ-NA induced diabetic Swiss Albino mouse model assessed as decrease in blood glucose level at 10 mg/kg, po measured up to 240 mins by Oral glucose tolerance test relative to control; format: functional, organism-based
[4] = Toxicity in STZ-NA induced diabetic Swiss Albino mouse model assessed as decrease in body weight at 5 mg/kg, po measured after 21 days; format: organism-based; settings: in vivo, 504 h, time 21 day
[5] = Toxicity in STZ-NA induced diabetic Swiss Albino mouse model assessed as decrease in body weight at 10 mg/kg, po measured after 21 days; format: organism-based; settings: in vivo, 504 h, time 21 day
Mus musculus [6] = test: Effect on STZ-NA induced histological abnormalities in diabetic mouse model assessed as change in appearance of liver at 10 mg/kg, po after 21 days by hematoxylin and eosin staining based microscopic assay; format: functional, organism-based; settings: time 21.0 day
Mus musculus [7] = test: Effect on STZ-NA induced histological abnormalities in diabetic mouse model assessed as change in hepatocyte density at 10 mg/kg, po after 21 days by hematoxylin and eosin staining based microscopic assay; format: functional, organism-based; settings: time 21.0 day
Mus musculus [8] = test: Effect on STZ-NA induced histological abnormalities in diabetic mouse model assessed as change in hepatocyte structure at 10 mg/kg, po after 21 days by hematoxylin and eosin staining based microscopic assay; format: functional, organism-based; settings: time 21.0 day
Mus musculus [9] = test: Effect on STZ-NA induced histological abnormalities in diabetic mouse model assessed as change in hepatocyte size at 10 mg/kg, po after 21 days by hematoxylin and eosin staining based microscopic assay; format: functional, organism-based; settings: time 21.0 day
Mus musculus [10] = test: Reversal of STZ-NA induced histological abnormalities in diabetic mouse model assessed as hepatic portal vein at 10 mg/kg, po after 21 days by hematoxylin and eosin staining based microscopic assay; format: functional, organism-based; settings: time 21.0 day
Mus musculus [11] = test: Reversal of STZ-NA induced histological abnormalities in diabetic mouse model assessed as enlarged extracellular gaps at 10 mg/kg, po after 21 days by hematoxylin and eosin staining based microscopic assay; format: functional, organism-based; settings: time 21.0 day
Mus musculus [12] = test: Reversal of STZ-NA induced histological abnormalities in diabetic mouse model assessed as vacuoles at 10 mg/kg, po after 21 days by hematoxylin and eosin staining based microscopic assay; format: functional, organism-based; settings: time 21.0 day
Mus musculus [13] = test: Reversal of STZ-NA induced histological abnormalities in diabetic mouse model assessed as vacuolation and mild congestion at 10 mg/kg, po after 21 days by hematoxylin and eosin staining based microscopic assay; format: functional, organism-based; settings: time 21.0 day
Mus musculus [14] = test: Reversal of STZ-NA induced increase in DPP-4 expression in po dosed diabetic mouse model assessed as decrease in DPP-4 expression in cellular region after 21 days by Immunohistochemical analysis; format: functional, organism-based; settings: dose 5-10 mg/kg, time 21.0 day
Mus musculus [15] = test: Reversal of STZ-NA induced increase in DPP-4 mRNA production in po dosed diabetic mouse model assessed as decrease in DPP-4 mRNA expression in liver tissue by measuring mean fluorescence intensity after 21 days by RT-qPCR analysis; format: functional, organism-based; settings: dose 5-10 mg/kg, time 21.0 day
HepG2 [16] = settings: dose 15 nM; time 24 hrs
HepG2 [17] = settings: dose 15 nM; time 24 hrs; remark: listed apart in the source
Mus musculus [18] = species on record: Mus musculus; settings: dose 5 mg/kg; route po; time 21 day
Description: Reversal of STZ-NA induced total ROS formation in diabetic mouse model assessed as decrease in ROS production by measuring mean fluorescence intensity at 5 mg/kg, po after 21 days (Rvb = 287228 No_unit)

Mus musculus [19] = species on record: Mus musculus; settings: dose 10 mg/kg; route po; time 21 day
Description: Reversal of STZ-NA induced total ROS formation in diabetic mouse model assessed as decrease in ROS production by measuring mean fluorescence intensity at 10 mg/kg, po after 21 days (Rvb = 287228 No_unit)

Mus musculus [20] = species on record: Mus musculus; settings: dose 5 mg/kg; route po; time 21 day; remark: listed apart in the source
Mus musculus [21] = species on record: Mus musculus; settings: dose 10 mg/kg; route po; time 21 day; remark: listed apart in the source
Mus musculus [22] = species on record: Mus musculus; settings: dose 5 mg/kg; route po; time 21 day; remark: listed apart in the source
Description: Reversal of STZ-NA induced increase in DPP-4 production in diabetic mouse model assessed as decrease in DPP-4 expression in liver tissue by measuring mean fluorescence intensity at 5 mg/kg, po after 21 days by flow cytometry (Rvb = 322245 No_unit)

Mus musculus [23] = species on record: Mus musculus; settings: dose 10 mg/kg; route po; time 21 day; remark: listed apart in the source
Description: Reversal of STZ-NA induced increase in DPP-4 production in diabetic mouse model assessed as decrease in DPP-4 expression in liver tissue by measuring mean fluorescence intensity at 10 mg/kg, po after 21 days by flow cytometry (Rvb = 322245 No_unit)

Dipeptidyl peptidase 4 = Dipeptidyl peptidase 4 (Homo sapiens, UniProt P27487); test: Inhibition of human recombinant DPP-4 using Gly-Pro-AMC as fluorogenic substrate by measuring fluorescence intensity incubated for 30 mins
Dipeptidyl peptidase 4, sequence (P27487 whole entry): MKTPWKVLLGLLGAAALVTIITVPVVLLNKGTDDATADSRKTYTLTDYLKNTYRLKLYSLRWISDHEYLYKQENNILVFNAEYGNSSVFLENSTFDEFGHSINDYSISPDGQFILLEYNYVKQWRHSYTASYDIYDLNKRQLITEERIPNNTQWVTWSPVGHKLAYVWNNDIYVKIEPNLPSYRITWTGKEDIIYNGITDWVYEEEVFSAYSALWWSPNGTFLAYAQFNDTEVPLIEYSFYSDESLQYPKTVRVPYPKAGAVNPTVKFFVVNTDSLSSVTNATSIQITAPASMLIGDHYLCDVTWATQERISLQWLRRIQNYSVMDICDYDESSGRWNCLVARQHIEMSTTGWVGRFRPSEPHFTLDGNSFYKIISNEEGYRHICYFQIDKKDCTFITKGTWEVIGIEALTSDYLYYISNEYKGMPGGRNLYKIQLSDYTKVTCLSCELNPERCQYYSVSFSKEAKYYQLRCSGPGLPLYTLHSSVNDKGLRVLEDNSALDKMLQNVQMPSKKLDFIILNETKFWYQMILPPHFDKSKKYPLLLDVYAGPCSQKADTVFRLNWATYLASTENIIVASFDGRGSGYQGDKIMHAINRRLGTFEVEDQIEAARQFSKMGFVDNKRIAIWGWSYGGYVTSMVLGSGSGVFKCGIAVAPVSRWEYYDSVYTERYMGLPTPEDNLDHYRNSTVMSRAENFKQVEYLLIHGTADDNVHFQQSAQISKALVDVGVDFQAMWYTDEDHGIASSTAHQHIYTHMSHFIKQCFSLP

Mus musculus [24] = test: Acute anti-hyperglycemic activity against STZ-NA induced diabetic Swiss Albino mouse model assessed as reduction in blood glucose level at 10 mg/kg, po measured up to 24 hrs; format: functional, organism-based
Mus musculus [25] = test: Chronic anti-hyperglycemic activity against STZ-NA induced diabetic Swiss Albino mouse model assessed as reduction in blood glucose level at 10 mg/kg, po measured up to 21 days; format: functional, organism-based; settings: time <= 21.0 day
Mus musculus [26] = test: Acute anti-hyperglycemic activity against STZ-NA induced diabetic Swiss Albino mouse model assessed as reduction in blood glucose level at 5 mg/kg, po measured up to 24 hrs; format: functional, organism-based
Mus musculus [27] = test: Chronic anti-hyperglycemic activity against STZ-NA induced diabetic Swiss Albino mouse model assessed as reduction in blood glucose level at 5 mg/kg, po measured up to 21 days; format: functional, organism-based; settings: time <= 21.0 day

Q: Which Activity (HepG2 [1]) does the source give for Cn1c(=O)c2c(nc(Oc3ccc(Br)cc3)n2CC(=O)c2ccc(-c3ccccc3)cc2)n(C)c1=O here?
A: Non-toxic

Q: For C=CCn1c(Oc2ccc([N+](=O)[O-])cc2)nc2c1c(=O)n(Cc1nc(C)c3ccccc3n1)c(=O)n2C, which Activity (HepG2 [1]) is on record?
A: Non-toxic

Q: And the Activity (Mus musculus [2])?
A: Active

Q: What about the Activity (Mus musculus [3]) of the same molecule?
A: Active

Q: And the Activity [4]?
A: Toxic

Q: What about the Activity [5] of the same molecule?
A: Toxic

Q: And the Activity (Mus musculus [6])?
A: inactive

Q: What about the Activity (Mus musculus [7]) of the same molecule?
A: inactive

Q: And the Activity (Mus musculus [8])?
A: inactive

Q: What about the Activity (Mus musculus [9]) of the same molecule?
A: inactive

Q: And the Activity (Mus musculus [10])?
A: Active; Hepatic Portal Vein Looked Similar To Normal Group

Q: And the Activity (Mus musculus [11])?
A: Active

Q: What about the Activity (Mus musculus [12]) of the same molecule?
A: Active

Q: What about the Activity (Mus musculus [13]) of the same molecule?
A: inactive

Q: What about the Activity (Mus musculus [14]) of the same molecule?
A: Dose-dependent-effect

Q: What about the Activity (Mus musculus [15]) of the same molecule?
A: Dose-dependent-effect

Q: What about the Flu intensity (HepG2 [16]) of the same molecule?
A: 82988

Q: And the Flu intensity (HepG2 [17])?
A: 3565

Q: And the Flu intensity (Mus musculus [18])?
A: 165558

Q: What about the Flu intensity (Mus musculus [19]) of the same molecule?
A: 138121

Q: What about the Flu intensity (Mus musculus [20]) of the same molecule?
A: 36602

Q: What about the Flu intensity (Mus musculus [21]) of the same molecule?
A: 9136

Q: What about the Flu intensity (Mus musculus [22]) of the same molecule?
A: 248748

Q: What about the Flu intensity (Mus musculus [23]) of the same molecule?
A: 154821

Q: What does the source list for Cn1c(=O)c2c(nc(N3CCOCC3)n2Cc2ccccc2)n(C)c1=O?
A: Activity (HepG2 [1]): Non-toxic; IC50 (Dipeptidyl peptidase 4): 15.7 nM; Activity (Mus musculus [24]): Active; Results Comparable To Linagliptin; Activity (Mus musculus [25]): Active; Results Comparable To Linagliptin; Activity (Mus musculus [2]): Active; Activity (Mus musculus [3]): Active; Activity [4]: Toxic; Activity [5]: Toxic; Activity (Mus musculus [6]): inactive; Activity (Mus musculus [7]): inactive; Activity (Mus musculus [8]): inactive; Activity (Mus musculus [9]): inactive; Activity (Mus musculus [10]): Active; Hepatic Portal Vein Looked Similar To Normal Group; Activity (Mus musculus [11]): Active; Activity (Mus musculus [12]): Active; Activity (Mus musculus [13]): inactive; Activity (Mus musculus [14]): Dose-dependent-effect; Activity (Mus musculus [15]): Dose-dependent-effect; Flu intensity (HepG2 [16]): 6930; Flu intensity (HepG2 [17]): 1460; Flu intensity (Mus musculus [18]): 82220; Flu intensity (Mus musculus [19]): 49658; Flu intensity (Mus musculus [20]): 11036; Flu intensity (Mus musculus [21]): 4811; Flu intensity (Mus musculus [22]): 240545; Flu intensity (Mus musculus [23]): 89888

Q: With C=CCn1c(=O)c2c(ncn2Cc2ccc(C#N)cc2)n(Cc2ccccc2)c1=O as the molecule, how does the Activity (HepG2 [1]) read?
A: Non-toxic

Q: Which Activity (Mus musculus [26]) does the source give for CC#CCn1c(N2CCC[C@@H](N)C2)nc2c1c(=O)n(Cc1nc(C)c3ccccc3n1)c(=O)n2C [LINAGLIPTIN] here?
A: Active

Q: What about the Activity (Mus musculus [27]) of the same molecule?
A: Active

Q: And the Activity (Mus musculus [2])?
A: Active

Q: What about the Activity [4] of the same molecule?
A: Toxic

Q: What about the Flu intensity (HepG2 [16]) of the same molecule?
A: 3493

Q: What about the Flu intensity (HepG2 [17]) of the same molecule?
A: 1212

Q: What about the Flu intensity (Mus musculus [18]) of the same molecule?
A: 15930

Q: And the Flu intensity (Mus musculus [20])?
A: 2520

Q: What about the Flu intensity (Mus musculus [22]) of the same molecule?
A: 20334

Q: For Cn1c(=O)c2c(nc(Oc3ccc([N+](=O)[O-])cc3)n2Cc2ccc(Cl)cc2Cl)n(C)c1=O, which Activity (HepG2 [1]) is on record?
A: Non-toxic

Q: For Cn1c(=O)c2c(nc(Oc3ccc(C=O)cc3)n2Cc2ccc(F)cc2)n(C)c1=O, which Activity (HepG2 [1]) is on record?
A: Non-toxic

Q: For Cn1c(=O)c2c(nc(Oc3ccc([N+](=O)[O-])cc3)n2CC(=O)c2ccc(-c3ccccc3)cc2)n(C)c1=O, which Activity (HepG2 [1]) is on record?
A: Non-toxic

Q: For Cn1c(=O)[nH]c(=O)c2c1nc(N1CCOCC1)n2Cc1ccc(Cl)cc1, which Activity (HepG2 [1]) is on record?
A: Non-toxic

Q: With Cn1c(=O)[nH]c(=O)c2c1nc(Oc1ccc([N+](=O)[O-])cc1)n2Cc1ccc(C#N)cc1 as the molecule, how does the Activity (HepG2 [1]) read?
A: Non-toxic

Q: Which Activity (HepG2 [1]) does the source give for Cn1c(=O)c2c(nc(Oc3ccc4ccc(=O)oc4c3)n2CC(=O)c2ccc(-c3ccccc3)cc2)n(C)c1=O here?
A: Non-toxic

Q: Which Activity (HepG2 [1]) does the source give for COc1cccc(Cn2c(N3CCOCC3)nc3c2c(=O)n(C)c(=O)n3C)c1 here?
A: Non-toxic

Q: And the IC50 (Dipeptidyl peptidase 4)?
A: 27.9 nM

Q: Which Activity (HepG2 [1]) does the source give for Cn1c(=O)c2c(nc(N3CCOCC3)n2Cc2ccc(F)cc2)n(C)c1=O here?
A: Non-toxic

Q: For Cn1c(=O)n(Cc2ccccc2)c(=O)c2c1nc(Oc1ccc([N+](=O)[O-])cc1)n2Cc1ccc(C#N)cc1, which Activity (HepG2 [1]) is on record?
A: Non-toxic

Q: Which Activity (HepG2 [1]) does the source give for Cn1c(=O)c2c(nc(N3CCOCC3)n2Cc2cccc([N+](=O)[O-])c2)n(C)c1=O here?
A: Non-toxic

Q: Which Activity (HepG2 [1]) does the source give for Cn1c(=O)c2c(nc(Oc3ccc(C=O)cc3)n2Cc2ccc(Cl)cc2Cl)n(C)c1=O here?
A: Non-toxic

Q: With Cc1ccc(Cn2cnc3c2c(=O)n(Cc2ccc(C#N)cc2)c(=O)n3C)cc1 as the molecule, how does the Activity (HepG2 [1]) read?
A: Non-toxic
